Measurements taken from ChEMBL document CHEMBL3046782, “Fungicidial Activity of Benthiavalicarb-isopropyl against Phytophthora infestans and Its Controlling Activity against Late Blight Diseases” (J Pestic Sci, 2005).
≈ marks a conversion by molar mass, not a printed value. Calls of active or inactive are those of the source. The calls are words filed in the database; no cut-off is given here.

Tests used:
Phytophthora infestans [1] = assay: Antifungal activity against Phytophthora infestans in potato tuber slices assessed as inhibition of zoosporangia release at 1 ug/ml after 3 hr relative to control; format: functional
Phytophthora infestans [2] = assay: Antifungal activity against Phytophthora infestans in potato tuber slices assessed as inhibition of zoosporangia motility at 10 ug/ml after 3 hr relative to control; format: functional, organism-based
Phytophthora infestans [3] = assay: Antifungal activity against Phytophthora infestans infected tomato assessed as translaminar activity of controlling late blight at 3 to 100 mg/l after 24 hr; format: functional, organism-based
Phytophthora infestans [4] = assay: Antifungal activity against Phytophthora infestans in potato tuber slices assessed as inhibition of zoosporangia release at 10 ug/ml after 3 hr relative to control; format: functional
Phytophthora infestans [5] = assay: Antifungal activity against Phytophthora infestans in potato tuber slices assessed as inhibition of zoosporangia germination at 0.1 ug/ml after 6 hr relative to control; format: functional
Phytophthora infestans [6] = assay: Antifungal activity against Phytophthora infestans in potato tuber slices assessed as inhibition of cystospore germination at 1 ug/ml after 6 hr relative to control; format: functional
Phytophthora infestans [7] = assay: Antifungal activity against Phytophthora infestans TK-301 assessed as inhibition of mycelial growth after 5 to 7 days; format: functional, organism-based
Phytophthora infestans [8] = assay: Antifungal activity against Phytophthora infestans r0-3 assessed as inhibition of mycelial growth after 5 to 7 days; format: functional, organism-based; details: for IC50: read-out: I50
Phytophthora infestans [9] = assay: Antifungal activity against Phytophthora infestans infected tomato assessed as control of late blight at 25 to 50 g/ha treated 4 to 5 times at 7 day interval; format: functional, organism-based
Phytophthora porri = assay: Antifungal activity against Phytophthora porri IFO 30416 assessed as inhibition of mycelial growth after 5 to 7 days; format: functional, organism-based; details: for IC50: read-out: I50
Phytophthora infestans [10] = assay: microbe, parasite or virus in culture; format: functional; details: Tuber, in Solanum tuberosum, 48 h
Phytophthora infestans [11] = assay: Antifungal activity against Phytophthora infestans in potato tuber slices assessed as inhibition of zoosporangia release at 100 ug/ml after 3 hr relative to control; format: functional
Phytophthora infestans [12] = assay: Antifungal activity against Phytophthora infestans infected potato plant assessed as control of late blight at 50 to 75 g/ha treated 4 to 5 times at 7 day interval; format: functional, organism-based
Phytophthora infestans [13] = assay: Antifungal activity against Phytophthora infestans in potato tuber slices assessed as inhibition of zoosporangia motility at 100 ug/ml after 3 hr relative to control; format: functional, organism-based
Phytophthora palmivora = assay: Antifungal activity against Phytophthora palmivora IFO 30285 assessed as inhibition of mycelial growth after 5 to 7 days; format: functional, organism-based; details: for IC50: read-out: I50
Phytophthora infestans [14] = assay: Antifungal activity against Phytophthora infestans in potato tuber slices assessed as inhibition of cystospore germination at 10 ug/ml after 6 hr relative to control; format: functional
Phytophthora infestans [15] = assay: Antifungal activity against Phytophthora infestans r1234-2 assessed as inhibition of mycelial growth after 5 to 7 days; format: functional, organism-based; details: for IC50: read-out: I50
Phytophthora infestans [16] = assay: Antifungal activity against Phytophthora infestans C-3 assessed as inhibition of mycelial growth after 5 to 7 days; format: functional, organism-based; details: for IC50: read-out: I50
Phytophthora infestans [17] = assay: Antifungal activity against Phytophthora infestans in potato tuber slices assessed as inhibition of cystospore germination at 0.1 ug/ml after 6 hr relative to control; format: functional
Phytophthora infestans [18] = assay: Antifungal activity against Phytophthora infestans infected tomato assessed as control of late blight at 300 mg/l after 24 hr by greenhouse test; format: functional, organism-based
Phytophthora nicotianae = assay: Antifungal activity against Phytophthora nicotianae IFO 30595 assessed as inhibition of mycelial growth after 5 to 7 days; format: functional, organism-based; details: for IC50: read-out: I50
Phytophthora infestans [19] = assay: Antifungal activity against Phytophthora infestans in potato tuber slices assessed as inhibition of zoosporangia germination at 1 ug/ml after 6 hr relative to control; format: functional
Phytophthora cactorum = assay: Antifungal activity against Phytophthora cactorum IFO 30474 assessed as inhibition of mycelial growth after 5 to 7 days; format: functional, organism-based; details: for IC50: read-out: I50
Phytophthora infestans [20] = assay: Antifungal activity against Phytophthora infestans r1234 assessed as inhibition of mycelial growth after 5 to 7 days; format: functional, organism-based; details: for IC50: read-out: I50
Phytophthora infestans [21] = assay: microbe, parasite or virus in culture; format: functional; details: Tuber, in Solanum tuberosum, 48 h; remark: listed apart in the source
Phytophthora infestans [22] = assay: Antifungal activity against Phytophthora infestans in potato tuber slices assessed as inhibition of zoosporangia germination at 10 ug/ml after 6 hr relative to control; format: functional
Phytophthora infestans [23] = assay: Antifungal activity against Phytophthora infestans infected tomato assessed as control of late blight at 10 mg/l after 12 hr by greenhouse test; format: functional, organism-based
Phytophthora capsici = assay: Antifungal activity against Phytophthora capsici IFO 8386 assessed as inhibition of mycelial growth after 5 to 7 days; format: functional, organism-based; details: for IC50: read-out: I50
Phytophthora infestans [24] = assay: Antifungal activity against Phytophthora infestans infected tomato assessed as systemic activity of controlling late blight at 100 mg/l after 24 hr; format: functional, organism-based
Phytophthora infestans [25] = assay: Antifungal activity against Phytophthora infestans in potato tuber slices assessed as inhibition of zoosporangia motility at 1 ug/ml after 3 hr relative to control; format: functional, organism-based
Phytophthora infestans [26] = assay: microbe, parasite or virus in culture; format: functional; details: Tuber, in Solanum tuberosum, 48 h; remark: listed apart in the source
Phytophthora megasperma = assay: Antifungal activity against Phytophthora megasperma assessed as inhibition of mycelial growth after 5 to 7 days; format: functional, organism-based; details: for IC50: read-out: I50
Phytophthora katsurae = assay: Antifungal activity against Phytophthora katsurae assessed as inhibition of mycelial growth after 5 to 7 days; format: functional, organism-based; details: for IC50: read-out: I50

CC(C)OC(=O)N[C@H](C(=O)N[C@H](C)c1nc2ccc(F)cc2s1)C(C)C [BENTHIAVALICARB-ISOPROPYL]
inhibition at 1 µg/mL (Phytophthora infestans [1]): 0% | inhibition (Phytophthora infestans [2]): inactive | Activity (Phytophthora infestans [3]): Active | inhibition at 10 µg/mL (Phytophthora infestans [4]): 0% | inhibition at 0.1 µg/mL (Phytophthora infestans [5]): 98.6% | inhibition at 1 µg/mL (Phytophthora infestans [6]): 100% | MIC (Phytophthora infestans [7]): 0.03 µg/mL (≈ 0.0786 µM) | IC50 (Phytophthora infestans [7]; read-out: I50): 0.03 µg/mL (≈ 0.0786 µM) | MIC (Phytophthora infestans [8]): 0.03 µg/mL (≈ 0.0786 µM) | IC50 (Phytophthora infestans [8]): 0.03 µg/mL (≈ 0.0786 µM) | Activity (Phytophthora infestans [9]): Active | MIC (Phytophthora porri): 0.1 µg/mL (≈ 0.262 µM) | IC50 (Phytophthora porri): 0.02 µg/mL (≈ 0.0524 µM) | inhibition at 1 µg/mL (Phytophthora infestans [10]): 96.8% | inhibition at 100 µg/mL (Phytophthora infestans [11]): 45.5% | Activity (Phytophthora infestans [12]): Active | inhibition (Phytophthora infestans [13]): inactive | MIC (Phytophthora palmivora): 0.1 µg/mL (≈ 0.262 µM) | IC50 (Phytophthora palmivora): 0.02 µg/mL (≈ 0.0524 µM) | inhibition at 10 µg/mL (Phytophthora infestans [14]): 100% | MIC (Phytophthora infestans [15]): 0.1 µg/mL (≈ 0.262 µM) | IC50 (Phytophthora infestans [15]): 0.03 µg/mL (≈ 0.0786 µM) | MIC (Phytophthora infestans [16]): 0.1 µg/mL (≈ 0.262 µM) | IC50 (Phytophthora infestans [16]): 0.03 µg/mL (≈ 0.0786 µM) | inhibition at 0.1 µg/mL (Phytophthora infestans [17]): 95.5% | Activity (Phytophthora infestans [18]): Active | MIC (Phytophthora nicotianae): 0.1 µg/mL (≈ 0.262 µM) | IC50 (Phytophthora nicotianae): 0.05 µg/mL (≈ 0.131 µM) | inhibition at 1 µg/mL (Phytophthora infestans [19]): 100% | MIC (Phytophthora cactorum): 0.03 µg/mL (≈ 0.0786 µM) | IC50 (Phytophthora cactorum): 0.03 µg/mL (≈ 0.0786 µM) | MIC (Phytophthora infestans [20]): 0.1 µg/mL (≈ 0.262 µM) | IC50 (Phytophthora infestans [20]): 0.02 µg/mL (≈ 0.0524 µM) | inhibition at 10 µg/mL (Phytophthora infestans [21]): 97.6% | inhibition at 10 µg/mL (Phytophthora infestans [22]): 100% | Activity (Phytophthora infestans [23]): Active | MIC (Phytophthora capsici): 0.03 µg/mL (≈ 0.0786 µM) | IC50 (Phytophthora capsici): 0.01 µg/mL (≈ 0.0262 µM) | Activity (Phytophthora infestans [24]): Active | inhibition (Phytophthora infestans [25]): inactive | inhibition at 0.1 µg/mL (Phytophthora infestans [26]): 45.2% | MIC (Phytophthora megasperma): 0.1 µg/mL (≈ 0.262 µM) | IC50 (Phytophthora megasperma): 0.02 µg/mL (≈ 0.0524 µM) | MIC (Phytophthora katsurae): 0.03 µg/mL (≈ 0.0786 µM) | IC50 (Phytophthora katsurae): 0.04 µg/mL (≈ 0.105 µM)

COCC(=O)N(c1c(C)cccc1C)C(C)C(=O)OC (configuration not stated) [METALAXYL]
MIC (Phytophthora infestans [8]): > 10 µg/mL | IC50 (Phytophthora infestans [8]): 0.21 µg/mL (≈ 0.752 µM) | MIC (Phytophthora porri): > 3 µg/mL | IC50 (Phytophthora porri): 0.08 µg/mL (≈ 0.286 µM) | MIC (Phytophthora palmivora): > 3 µg/mL | IC50 (Phytophthora palmivora): 0.54 µg/mL (≈ 1.93 µM) | MIC (Phytophthora infestans [15]): > 10 µg/mL | IC50 (Phytophthora infestans [15]): 0.05 µg/mL (≈ 0.179 µM) | MIC (Phytophthora infestans [16]): 3 µg/mL (≈ 10.7 µM) | IC50 (Phytophthora infestans [16]): 0.15 µg/mL (≈ 0.537 µM) | MIC (Phytophthora nicotianae): > 3 µg/mL | IC50 (Phytophthora nicotianae): 0.08 µg/mL (≈ 0.286 µM) | MIC (Phytophthora cactorum): 0.3 µg/mL (≈ 1.07 µM) | IC50 (Phytophthora cactorum): 0.03 µg/mL (≈ 0.107 µM) | MIC (Phytophthora infestans [20]): 0.3 µg/mL (≈ 1.07 µM) | IC50 (Phytophthora infestans [20]): 0.09 µg/mL (≈ 0.322 µM) | MIC (Phytophthora capsici): > 3 µg/mL | IC50 (Phytophthora capsici): 0.62 µg/mL (≈ 2.22 µM) | MIC (Phytophthora megasperma): > 100 µg/mL | IC50 (Phytophthora megasperma): 0.34 µg/mL (≈ 1.22 µM) | MIC (Phytophthora katsurae): > 100 µg/mL | IC50 (Phytophthora katsurae): 0.46 µg/mL (≈ 1.65 µM)
